# According to patent US8388944B2, “Inactivating organisms using carbon dioxide at or near its supercritical pressure and temperature conditions” (Novasterilis Inc., priority 2003, dated 2013):
# Counter-ions that a name gives are not always drawn.
# Key:
# [1] = tested on: B. subtilis spore and vegetative forms; test: Inactivation of B. subtilis spore and vegetative forms, CFU counted after serial dilution and culturing; type: cell-based, Bacillus subtilis
# Description: The reactor vessel was heated to 50° C. and equilibrated with CO2 at atmospheric pressure. The stirring and agitation mechanisms were activated and the reactor vessel pressurized to 3000 psi for 40 minutes. The CO2 pressure was then allowed to drop to 1500 psi at a rate of 300 psi/minute. Agitation was carried out for 1 minute.
# The loop was sealed and pressurized to 3000 psi.
# The stirring was stopped and the basket was removed from the reactor vessel.
# The reactor vessel was heated to 50° C. and equilibrated with CO2 at atmospheric pressure. […] The CO2 pressure was then allowed to drop to 1500 psi at a rate of 300 psi/minute.
# [2] = tested on: B. stearothermophilus spores; test: Inactivation of B. stearothermophilus spores, CFU counted after serial dilution and culturing; type: cell-based; settings: for CFU/mL after treatment: start 2.3×10^6 CFU/mL
# Text: The effects of using an additive in accordance with the present invention was compared using the process described by U.S. Pat. No. 6,149,864 to Dillow et al. for inactivating B. stearothermophilus spores. […] In contrast, 6.4-log inactivation (i.e., 2.3×10^6 CFU/mL to undetectable) was achieved using the process of the present invention (i.e., 1100 psi to 3000 psi with random and directional agitation, and including TFA as the chemical additive). The chemical additive was placed on a cotton ball and inserted in the chamber prior to closure. No further chemical additive was used.
# The apparatus generally depicted in FIG. 1 was employed. A sample of B. stearothermophilus spores (1 mL) of greater than 10^6 CFU/mL was placed in 16 mm diameter test tubes in a stainless steel basket. Trifluoroacetic acid (4 mL) was transferred by syringe onto the surface of a cotton ball placed in the basket and water (6 mL) was placed at bottom of vessel. The basket was then loaded into the 600 mL reactor vessel. The reactor vessel was heated to 50° C. and equilibrated with CO2 at atmospheric pressure. The stirring and agitation mechanisms were activated and the reactor vessel pressurized to […] for 40 minutes. The CO2 pressure was then allowed to drop to 1100 psi at a rate of 300 psi/minute. Agitation by means of vibration of the vessel was carried out for 1 minute.
# The pressurization/stirring/agitation/depressurization process was repeated a total of three times. After the third cycle, a series of three flushing cycles to remove the additive was performed by pressurizing and partial depressurizing the reactor vessel using CO2. The stirring was stopped and the basket was removed from the reactor vessel. Any remaining CFU were counted after serial dilution and culturing of both treated and untreated controls.
# Escherichia coli = test: Inactivation of bacteria by supercritical carbon dioxide; type: cell-based; settings: 34° C., 2973 psi to 1500 psi, three cycles over 0.5 hours
# Text: (§1) Maintaining the natural presentation environment for a given antigen generally enhances the protective qualities of a given vaccine. Ghost vaccine preparations result in empty bacterial shells that are intact except for holes produced by the lysis gene product when viewed by scanning electron microscopy (SEM). In contrast, organisms inactivated by supercritical carbon dioxide have intact cell walls (i.e., no lysis holes) and are not empty (i.e., the cytosolic contents are retained). Staphylococcus aureus and Pseudomonas aeruginosa were inactivated by at least 6-log with supercritical carbon dioxide at 40° C. and 2973 psi to 1500 psi for a total of six cycles over 4 hours. Escherichia coli was inactivated by at least 6-log with supercritical carbon dioxide at 34° C. and 2973 psi to 1500 psi for a total of three cycles over 0.5 hours.
# Pseudomonas aeruginosa = test: as above; type: cell-based; settings: 40° C., 2973 psi to 1500 psi, six cycles over 4 hours
# Text: as §1
# Staphylococcus aureus = test: as above; type: cell-based; settings: 40° C., 2973 psi to 1500 psi, six cycles over 4 hours
# Text: as §1
# Salmonella typhimurium = test: Inactivation of S. typhimurium, serial dilutions and colony counts; type: cell-based; settings: Example 8: no chemical additive, water 1 vol. %, 35° C., 1500 psi constant for 15 minutes, greater than 10^9 CFU/mL
# Description: A sample of Salmonella typhimurium (5 mL), […], of greater than 10^9 CFU/mL was placed into 16 mm test tubes in a stainless steel basket. Water was added on a cotton ball to the vessel at 1% of the total volume (1 vol. %) of the vessel. No chemical additive was placed in the vessel. The reactor vessel was heated to 35° C. and equilibrated with CO2 at atmospheric pressure. The stirring and agitation mechanisms were activated and vessel pressurized to 1500 psi and held constant for 15 minutes. The vessel was then depressurized and the contents removed for analysis. Quantitative analysis of any remaining Salmonella typhimurium in treated sample vs. untreated control was enumerated though serial dilutions and colony counts.
# B. subtilis spore forms = settings: process disclosed in the Dillow '864 patent, other investigators [27]; cited from earlier work
smiles,measurement,setting,value
"CC(=O)O [Acetic acid, acetic acid]",kill of B. subtilis present,"[1]; Example 3B: as Example 3A, samples of less than 10^6 CFU/ml",total kill
same,log reduction in CFU extrapolated for greater than 10^6 CFU/ml,[1]; Example 3B: extrapolated from total kill of samples below 10^6 CFU/ml,6 log
same,log reduction,"[1]; Example 7: acetic acid 6 mL then 4 mL per cycle in CO2, 50° C., 3000 psi 40 minutes to 1500 psi, three cycles",at least 6 log
"O=C(O)C(F)(F)F [TFA, trifluoroacetic acid]",log inactivation,"[2]; TFA as chemical additive in supercritical CO2, 1100 psi to 3000 psi, random and directional agitation",6.4 log
same,CFU/mL after treatment,"[2]; TFA as chemical additive in supercritical CO2, 1100 psi to 3000 psi",undetectable
"O=C=O [supercritical carbon dioxide, carbon dioxide]",log inactivation,"[2]; no chemical additive, Dillow '864 conditions, three cycles of 60° C. for two hours, 1500 psi to 3000 psi, random agitation",1.0 log
same,CFU/mL after treatment,"[2]; no chemical additive, three cycles of 60° C. for two hours, 1500 psi to 3000 psi",2.1×10^5 CFU/mL
same,log inactivation,Escherichia coli,at least 6 log
same,log inactivation,Pseudomonas aeruginosa,at least 6 log
same,log inactivation,Staphylococcus aureus,at least 6 log
same,log reduction,Salmonella typhimurium,9 log
same,log reduction in B. subtilis spore forms,B. subtilis spore forms,3.5 log
